# Experimental data published in US12533386B2, “Preparation of black tea extract with high theaflavin content and use thereof” (Huanggang Normal University, priority 2022, dated 2026).
# Tested on: atherosclerosis in ApoE−/− (ApoE-KO) mice
# Experiment: Atherosclerosis mouse model (ApoE-KO, high fat diet), histological analyses
# Assay type: in vivo
# Conditions: 2.5 mg and 7.5 mg theaflavin treatment, especially high dose of 7.5 mg; versus high fat diet group
# Experimental: Twenty four model male ApoE−/− (ApoE-KO) mice were fed a high fat diet for 6 weeks to develop established atherosclerosis. At 8 weeks of age, they were divided into 4 treatment groups: control, high fat diet, 2.5 mg theaflavin treatment, and 7.5 mg theaflavin treatment. 8 weeks after commencement of the study, ApoE-KO mice were anaesthetized. All animal experiments were performed in accordance with the Guidelines for the Care and Use of Laboratory Animals, Ministry of Science and Technology, China. This study was approved by the Animal Care and Scientific Committee of Huanggang Normal University, Hubei, China.
compound,measurement,value
O=c1c(O)cc([C@H]2Oc3cc(O)cc(O)c3C[C@H]2O)cc2c([C@H]3Oc4cc(O)cc(O)c4C[C@H]3O)cc(O)c(O)c12 [theaflavin],"tissue damages in histology (aorta, adipose)",could reverse some of the tissue damages
